Laboratory results taken from US4605744A, “Imidazole derivatives” (Hoffmann-La Roche Inc., priority 1985, dated 1986).
Structures can show the parent of a compound that is named as a salt. Where two headings read alike, the source gives them in different places.

Columns and labels:
Assay in all cases: In vitro antibacterial activity (MIC)
Type in all cases: cell-based
C. diversus CDC 1663-72 = conditions: Citrobacter koseri, CDC166372; C. diversus CDC 1663-72; read-out: MIC
Protocol: (§1) Drug dilutions are prepared in Mueller-Hinton broth ranging from 128 to 0.008 μg/ml. The diluted agents are dispensed in 100 μl amounts into the wells of a 96-well tray and used immediately or frozen at -10° to -70° C. until needed. Using an automated inoculator, 1.5 μl of a 10^-2 dilution of an overnight culture is added to each well of the tray. The tops of the trays are then sealed using transparent tape and incubated overnight at 37° C. The trays are examined with the aid of a viewer. The lowest concentration at which no growth is observed is considered to be the minimum inhibitory concentration (MIC).

C. freundii 8ASM = conditions: Citrobacter freundii, 8ASM, C. freundii 8ASM; read-out: MIC
Protocol: as §1

C. freundii CDC6 = conditions: Citrobacter freundii, CDC6, C. freundii CDC6; read-out: MIC
Protocol: as §1

E. aerogenes 503-478 = conditions: Klebsiella aerogenes, 503478, E. aerogenes 503-478; read-out: MIC
Protocol: as §1

E. aerogenes 83 = tested on: E. aerogenes 83
Protocol: as §1

E. cloacae 214 = conditions: Enterobacter cloacae, 214, E. cloacae 214; read-out: MIC
Protocol: as §1

E. cloacae 5699 = conditions: Enterobacter cloacae, 5699, E. cloacae 5699; read-out: MIC
Protocol: as §1

E. cloacae 9295 = conditions: Enterobacter cloacae, 9295, E. cloacae 9295; read-out: MIC
Protocol: as §1

E. cloacae 9570A = conditions: Enterobacter cloacae, read-out: MIC
Protocol: as §1

E. cloacae P99 = conditions: Enterobacter cloacae, P99, E. cloacae P99
Protocol: as §1

E. coli 387-1 = conditions: Escherichia coli, 3871, E. coli 387-1; read-out: MIC
Protocol: as §1

E. coli 48 = tested on: E. coli 48
Protocol: as §1

E. coli 4 = conditions: Escherichia coli, 4
Protocol: as §1

E. coli 503-455 = tested on: E. coli 503-455
Protocol: as §1

E. coli 5152 = conditions: Escherichia coli, 5152, E. coli 5152; read-out: MIC
Protocol: as §1

E. coli R-563 = conditions: Escherichia coli, R563
Protocol: as §1

K. pneumoniae 35 = conditions: Klebsiella pneumoniae; K. pneumoniae 35; read-out: MIC
Protocol: as §1

K. pneumoniae 4964 = conditions: Klebsiella pneumoniae, 4964, K. pneumoniae 4964; read-out: MIC
Protocol: as §1

K. pneumoniae 503-964 = conditions: Klebsiella pneumoniae, 503964; K. pneumoniae 503-964; read-out: MIC
Protocol: as §1

K. pneumoniae 5096 = tested on: K. pneumoniae 5096
Protocol: as §1

P. aeruginosa 503-820 = conditions: Pseudomonas aeruginosa, 503820; P. aeruginosa 503-820; read-out: MIC
Protocol: as §1

P. mirabilis 190 = conditions: Proteus mirabilis, 190, P. mirabilis 190; read-out: MIC
Protocol: as §1

P. mirabilis 620A = conditions: Proteus mirabilis, 620A, P. mirabilis 620A; read-out: MIC
Protocol: as §1

P. mirabilis 90 = conditions: Proteus mirabilis, 90, P. mirabilis 90; read-out: MIC
Protocol: as §1

P. vulgaris 100 = conditions: Proteus vulgaris; P. vulgaris 100; read-out: MIC
Protocol: as §1

P. vulgaris 101 = conditions: Proteus vulgaris, 101, P. vulgaris 101; read-out: MIC
Protocol: as §1

S. marcescens S147 = conditions: Serratia marcescens; S. marcescens S147; read-out: MIC
Protocol: as §1

S. marcescens S1 = conditions: Serratia marcescens, S1, S. marcescens S1; read-out: MIC
Protocol: as §1

S. marcescens S2 = conditions: Serratia marcescens; S. marcescens S2; read-out: MIC
Protocol: as §1

S. marcescens S3 = conditions: Serratia marcescens; S. marcescens S3; read-out: MIC
Protocol: as §1

S. marcescens S4 = conditions: Serratia marcescens, S4, S. marcescens S4; read-out: MIC
Protocol: as §1

S. marcescens S5 = conditions: Serratia marcescens, S5, S. marcescens S5; read-out: MIC
Protocol: as §1

S. marcescens S714 = conditions: Serratia marcescens, S714, S. marcescens S714; read-out: MIC
Protocol: as §1

S. schottmuelleri = conditions: read-out: MIC
Protocol: as §1

## CC1(C)S[C@@H]2[C@H](N=CN3CCC(CCCn4ccnc4CO)CC3)C(=O)N2[C@H]1C(=O)O [R, [2S-(2alpha,5alpha,6beta)]-6-[[[4-[3-[2-(hydroxymethyl)-1H-imidazol-1-yl]propyl-1-piperidinyl]methylene]amino]-3,3-dimethyl-7-oxo-4-thia-1-azabicyclo[3.2.0]heptane-2-carboxylic acid hydrochloride 1.1 molar hydrate]
C. diversus CDC 1663-72
  MIC: 0.016 µg/mL
C. freundii 8ASM
  MIC: < 0.008 µg/mL
C. freundii CDC6
  MIC: 0.062 µg/mL
E. aerogenes 503-478
  MIC: 0.5 µg/mL
E. aerogenes 83; Klebsiella aerogenes, 83
  MIC: 1 µg/mL
E. cloacae 214
  MIC: 0.5 µg/mL
E. cloacae 5699
  MIC: 0.062 µg/mL
E. cloacae 9295
  MIC: 0.125 µg/mL
E. cloacae 9570A
  MIC: 0.062 µg/mL
E. cloacae P99
  MIC: 0.062 µg/mL
E. coli 387-1
  MIC: 2 µg/mL
E. coli 48; Escherichia coli, 48, E. coli 48, read-out: MIC
  MIC: 0.016 µg/mL
E. coli 4
  MIC: 2 µg/mL
E. coli 503-455; Escherichia coli, 503455, E. coli 503-455, read-out: MIC
  MIC: 0.5 µg/mL
E. coli 5152
  MIC: 4 µg/mL
E. coli R-563
  MIC: 4 µg/mL
K. pneumoniae 35
  MIC: 0.062 µg/mL
K. pneumoniae 4964
  MIC: 0.5 µg/mL
K. pneumoniae 503-964
  MIC: 0.016 µg/mL
K. pneumoniae 5096; Klebsiella pneumoniae, 5096, K. pneumoniae 5096
  MIC: 8 µg/mL
P. aeruginosa 503-820
  MIC: 128 µg/mL
P. mirabilis 190
  MIC: 0.062 µg/mL
P. mirabilis 620A
  MIC: 64 µg/mL
P. mirabilis 90
  MIC: 0.5 µg/mL
P. vulgaris 100
  MIC: 2 µg/mL
P. vulgaris 101
  MIC: 1 µg/mL
S. marcescens S147
  MIC: 0.125 µg/mL
S. marcescens S1
  MIC: 0.062 µg/mL
S. marcescens S2
  MIC: 0.125 µg/mL
S. marcescens S3
  MIC: 0.125 µg/mL
S. marcescens S4
  MIC: 0.5 µg/mL
S. marcescens S5
  MIC: 1 µg/mL
S. marcescens S714
  MIC: 1 µg/mL
S. schottmuelleri
  MIC: < 0.008 µg/mL

## CN(C)C=Nc1nccn1CCCC1CCN(C=N[C@@H]2C(=O)N3[C@@H]2SC(C)(C)[C@@H]3C(=O)O)CC1 [S, [2S-(2alpha,5alpha,6beta)]-6-[[[4-[3-[2-[[(dimethylamino)methylene]amino]-1H-imidazol-1-yl]propyl]-1-piperidinyl]methylene]amino]-3,3-dimethyl-7-oxo-4-thia-1-azabicyclo[3.2.0]heptane-2-carboxylic acid 1.7 molar hydrochloride 2.6 molar hydrate]
C. diversus CDC 1663-72
  MIC: 0.5 µg/mL
C. freundii 8ASM
  MIC: 0.125 µg/mL
C. freundii CDC6
  MIC: 0.5 µg/mL
E. aerogenes 503-478
  MIC: 2 µg/mL
E. aerogenes 83; Klebsiella aerogenes, 83, E. aerogenes 83, read-out: MIC
  MIC: 4 µg/mL
E. cloacae 214
  MIC: 4 µg/mL
E. cloacae 5699
  MIC: 1 µg/mL
E. cloacae 9295
  MIC: 1 µg/mL
E. cloacae 9570A
  MIC: 1 µg/mL
E. cloacae P99
  MIC: 1 µg/mL
E. coli 387-1
  MIC: 2 µg/mL
E. coli 48; Escherichia coli, 48
  MIC: 0.5 µg/mL
E. coli 4
  MIC: 4 µg/mL
E. coli 503-455; Escherichia coli, 503455
  MIC: 1 µg/mL
E. coli 5152
  MIC: 8 µg/mL
E. coli R-563
  MIC: 8 µg/mL
K. pneumoniae 35
  MIC: 0.5 µg/mL
K. pneumoniae 4964
  MIC: 0.5 µg/mL
K. pneumoniae 503-964
  MIC: 0.5 µg/mL
K. pneumoniae 5096; Klebsiella pneumoniae, K. pneumoniae 5096, read-out: MIC
  MIC: > 128 µg/mL
P. mirabilis 190
  MIC: 1 µg/mL
P. mirabilis 620A
  MIC: > 128 µg/mL
P. mirabilis 90
  MIC: 4 µg/mL
P. vulgaris 100
  MIC: 8 µg/mL
P. vulgaris 101
  MIC: 8 µg/mL
S. marcescens S147
  MIC: 2 µg/mL
S. marcescens S1
  MIC: 4 µg/mL
S. marcescens S2
  MIC: 2 µg/mL
S. marcescens S3
  MIC: 2 µg/mL
S. marcescens S4
  MIC: 4 µg/mL
S. marcescens S5
  MIC: 4 µg/mL
S. marcescens S714
  MIC: 4 µg/mL
S. schottmuelleri
  MIC: 0.25 µg/mL
